Experimental data from publication PMC5663094, “A seven-gene cluster in Ruminiclostridium cellulolyticum is essential for signalization, uptake and catabolism of the degradation products of cellulose hydrolysis” (Biotechnology for Biofuels, 2017).

Columns and labels:
rCuaA = biological target: T1, rCuaA (Ruminiclostridium cellulolyticum, UniProt B8I424); experiment: isothermal titration calorimetry; type: binding; details: 20 °C, 150 mM NaCl, 25 mM HEPES, pH 7.0
T1 construct: gene Ccel_2112; mature protein (lipoprotein signal peptide removed, putative cleavage at amino acid 22), N-terminal His6, pET22b(+), E. coli BL21(DE3)
Excerpt: isothermal titration calorimetry on rCuaA

rCuaD = biological target: T2, rCuaD (Ruminiclostridium cellulolyticum, UniProt B8I427); experiment: isothermal titration calorimetry; type: binding; details: 20 °C, 150 mM NaCl, 25 mM HEPES, pH 7.0
T2 construct: gene Ccel_2115; mature protein (lipoprotein signal peptide removed, putative cleavage at amino acid 20), N-terminal His6, pET22b(+), E. coli BL21(DE3)
Excerpt: isothermal titration calorimetry on rCuaD

T1 sequence (B8I424 entry or part of it): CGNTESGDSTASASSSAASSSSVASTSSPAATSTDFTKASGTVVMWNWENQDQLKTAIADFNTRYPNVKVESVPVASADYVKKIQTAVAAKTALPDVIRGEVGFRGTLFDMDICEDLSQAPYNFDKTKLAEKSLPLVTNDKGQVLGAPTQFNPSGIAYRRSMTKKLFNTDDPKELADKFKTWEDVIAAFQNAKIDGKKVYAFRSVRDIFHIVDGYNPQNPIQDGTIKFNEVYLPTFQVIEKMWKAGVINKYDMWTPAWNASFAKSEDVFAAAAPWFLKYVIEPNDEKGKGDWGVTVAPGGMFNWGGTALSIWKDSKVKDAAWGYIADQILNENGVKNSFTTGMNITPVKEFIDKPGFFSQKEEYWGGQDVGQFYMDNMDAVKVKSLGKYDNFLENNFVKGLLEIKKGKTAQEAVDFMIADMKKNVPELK
T2 sequence (B8I427 entry or part of it): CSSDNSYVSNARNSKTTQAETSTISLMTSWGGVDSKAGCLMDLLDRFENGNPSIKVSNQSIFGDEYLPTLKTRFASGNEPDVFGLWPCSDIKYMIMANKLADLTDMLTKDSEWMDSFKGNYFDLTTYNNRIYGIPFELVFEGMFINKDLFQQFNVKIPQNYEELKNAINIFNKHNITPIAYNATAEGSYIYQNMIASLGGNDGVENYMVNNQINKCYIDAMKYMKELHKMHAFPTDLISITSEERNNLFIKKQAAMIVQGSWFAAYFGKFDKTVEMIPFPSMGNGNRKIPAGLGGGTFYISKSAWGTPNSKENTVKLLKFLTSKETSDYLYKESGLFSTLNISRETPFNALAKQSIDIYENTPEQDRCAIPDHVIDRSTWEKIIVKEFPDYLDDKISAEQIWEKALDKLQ

Row | Compound | Kd (rCuaA) | Kd (rCuaD)
1 | OC[C@H]1O[C@@H](O[C@H]2[C@H](O)[C@@H](O)[C@H](O[C@H]3[C@H](O)[C@@H](O)[C@H](O[C@H]4[C@H](O)[C@@H](O)C(O)O[C@@H]4CO)O[C@@H]3CO)O[C@@H]2CO)[C@H](O)[C@@H](O)[C@@H]1O (some centres unmarked) [G4, cellotetraose] | 644 ± 58 nM | 
2 | OC[C@H]1O[C@@H](O[C@H]2[C@H](O)[C@@H](O)C(O)O[C@@H]2CO)[C@H](O)[C@@H](O)[C@@H]1O (some centres unmarked) [G2, cellobiose] | 240 ± 20 nM | 23 ± 3 nM
3 | OC[C@H]1O[C@@H](O[C@H]2[C@H](O)[C@@H](O)[C@H](O[C@H]3[C@H](O)[C@@H](O)C(O)O[C@@H]3CO)O[C@@H]2CO)[C@H](O)[C@@H](O)[C@@H]1O (some centres unmarked) [G3, cellotriose] | 405 ± 110 nM | 
4 | OC[C@H]1O[C@@H](O[C@H]2[C@H](O)[C@@H](O)[C@H](O[C@H]3[C@H](O)[C@@H](O)[C@H](O[C@H]4[C@H](O)[C@@H](O)[C@H](O[C@H]5[C@H](O)[C@@H](O)C(O)O[C@@H]5CO)O[C@@H]4CO)O[C@@H]3CO)O[C@@H]2CO)[C@H](O)[C@@H](O)[C@@H]1O (some centres unmarked) [G5, cellopentaose] | 1860 ± 130 nM | 
